Results: PubChem BioAssay AID212 (DTP/NCI, 2004)
Where “and” joins values, the source holds several entries; their conditions need not be identical. Equal values may be shown once. Inconclusive results are not listed. Where a SMILES comes first, the peptide text is derived from it. Bridges are numbered along the chain shown (N, C = ends).

Tested on: BDF1 mice, colon carcinoma 38 sc, T/C %
Test: NCI In Vivo Anticancer Drug Screen. Data for tumor model Colon Carcinoma 38 (subcutaneous) in B6D2F1 (BDF1) mice
Details: endpoint: median tumor weight (est.), higher = larger tumour
Method in brief: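 Mice with transplanted tumors are treated with compound or vehicle. Survival or tumor size is then measured in both groups. The ratio of treated to control gives the reported figure.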

[1] = dose: 25.0 mg/kg/injection, schedule: Q07DX002 (ip), vehicle: Klucel (hydroxypropylcellulose) (HPC)
[2] = dose: 100.0 mg/kg/injection, schedule: Q07DX002 (ip), vehicle: Klucel (hydroxypropylcellulose) (HPC)
[3] = dose: 200.0 mg/kg/injection, schedule: Q07DX002 (ip), vehicle: Klucel (hydroxypropylcellulose) (HPC)
[4] = dose: 400.0 mg/kg/injection, schedule: Q07DX002 (ip), vehicle: Klucel (hydroxypropylcellulose) (HPC)
[5] = dose: 50.0 mg/kg/injection, schedule: Q07DX002 (ip), vehicle: saline with Tween-80
[6] = dose: 100.0 mg/kg/injection, schedule: Q07DX002 (ip), vehicle: saline with Tween-80
[7] = dose: 200.0 mg/kg/injection, schedule: Q07DX002 (ip), vehicle: saline with Tween-80
[8] = dose: 25.0 mg/kg/injection, schedule: Q07DX002 (ip), vehicle: saline with Tween-80

ClCCCCCCCCCCc1ccccc1
T/C (dose: 12.5 mg/kg/injection, schedule: Q07DX002 (ip), vehicle: Klucel (hydroxypropylcellulose) (HPC)): 83 % of control
T/C (dose: 12.5 mg/kg/injection, schedule: Q07DX003 (ip), vehicle: Klucel (hydroxypropylcellulose) (HPC)): 77 % of control
T/C [1]: 83 % of control
T/C (dose: 25.0 mg/kg/injection, schedule: Q07DX003 (ip), vehicle: Klucel (hydroxypropylcellulose) (HPC)): 95 % of control
T/C (dose: 50.0 mg/kg/injection, schedule: Q07DX003 (ip), vehicle: Klucel (hydroxypropylcellulose) (HPC)): 63 % of control
T/C [2]: 67 % of control
T/C (dose: 100.0 mg/kg/injection, schedule: Q07DX003 (ip), vehicle: Klucel (hydroxypropylcellulose) (HPC)): 65 % of control
T/C [3]: 80 % of control
T/C (dose: 200.0 mg/kg/injection, schedule: Q07DX003 (ip), vehicle: Klucel (hydroxypropylcellulose) (HPC)): 90 % of control
T/C [4]: 88 % of control
T/C (dose: 400.0 mg/kg/injection, schedule: Q07DX003 (ip), vehicle: Klucel (hydroxypropylcellulose) (HPC)): 51 % of control

O=S1(=O)C=C(c2ccccc2)C(c2ccccc2)=C1
T/C (dose: 6.25 mg/kg/injection, schedule: Q07DX002 (ip), vehicle: saline with Tween-80): 112 % of control and 97 % of control
T/C [5]: 62 % of control and 80 % of control
T/C [6]: 84 % of control
T/C [7]: 88 % of control

CS(=O)(=O)OCCCCOS(C)(=O)=O
T/C (dose: 32.0 mg/kg/injection, schedule: Q01DX005 (ip), vehicle: saline with Tween-80): 15 % of control

O=C(Nc1ccccc1C(=O)O)c1cc([N+](=O)[O-])cc([N+](=O)[O-])c1
T/C [8]: 110 % of control and 88 % of control
T/C [5]: 78 % of control and 85 % of control
T/C [6]: 69 % of control
T/C [7]: 83 % of control and 86 % of control

O=C(O)c1ccc(C(=O)O)c(C(=O)O)c1.[NH-]C1CCCCC1[NH-].[Pt+2]
T/C (dose: 1.56 mg/kg/injection, schedule: Q07DX002 (ip), vehicle: sodium bicarbonate): 110 % of control
T/C (dose: 3.12 mg/kg/injection, schedule: Q07DX002 (ip), vehicle: sodium bicarbonate): 124 % of control
T/C (dose: 3.12 mg/kg/injection, schedule: Q07DX003 (ip), vehicle: sodium bicarbonate): 20 % of control
T/C (dose: 6.25 mg/kg/injection, schedule: Q07DX002 (ip), vehicle: sodium bicarbonate): 70 % of control
T/C (dose: 6.25 mg/kg/injection, schedule: Q07DX003 (ip), vehicle: sodium bicarbonate): 24 % of control
T/C (dose: 12.5 mg/kg/injection, schedule: Q07DX003 (ip), vehicle: sodium bicarbonate): 10 % of control
T/C (dose: 25.0 mg/kg/injection, schedule: Q07DX002 (ip), vehicle: sodium bicarbonate): 20 % of control and 36 % of control and 44 % of control
T/C (dose: 50.0 mg/kg/injection, schedule: Q07DX002 (ip), vehicle: sodium bicarbonate): 33 % of control

Nc1nc(N)c2cc(CNc3ccc(C(=O)NC(CC(=O)O)CC(=O)O)cc3)ccc2n1
T/C [1]: 120 % of control
T/C (dose: 50.0 mg/kg/injection, schedule: Q07DX002 (ip), vehicle: Klucel (hydroxypropylcellulose) (HPC)): 97 % of control
T/C [2]: 60 % of control
T/C [3]: 114 % of control
T/C [4]: 76 % of control

Cc1cc(O)c(N=Nc2ccc(C(=O)O)cc2)cc1C
T/C [8]: 108 % of control
T/C [5]: 104 % of control
T/C [6]: 100 % of control
T/C [7]: 55 % of control
T/C (dose: 400.0 mg/kg/injection, schedule: Q07DX002 (ip), vehicle: saline with Tween-80): 84 % of control

CCC(C)C1NC(=O)C(CC(C)C)NC(=O)C(C(C)C)NC(=O)C2CSSCC(NC1=O)C(=O)N2 (centres undefined) (cyclo(CCVLI); disulfide 1-2; configuration not given here)
T/C (dose: 128.12 micrograms/kg/injection, schedule: Q07DX002 (ip), vehicle: Klucel (hydroxypropylcellulose) (HPC)): 160 % of control
T/C (dose: 256.25 micrograms/kg/injection, schedule: Q07DX002 (ip), vehicle: Klucel (hydroxypropylcellulose) (HPC)): 118 % of control

Nc1nc(-c2cccc3ccccc23)cc2ccccc12
T/C [8]: 108 % of control
T/C [5]: 123 % of control
T/C [7]: 77 % of control
T/C (dose: 800.0 mg/kg/injection, schedule: Q07DX002 (ip), vehicle: saline with Tween-80): 108 % of control
